Converted amounts (≈) assume the structure as drawn. Read-outs that look alike come from different tables or passages of the source.
Legend:
E. faecalis = assay: Antimicrobial assay, microtitre broth dilution, E. faecalis; type: cell-based, Enterococcus faecalis ATCC 29212; details: lowest concentration causing 100% growth inhibition; 24 h, 37°C; n = 5
Procedure: Apamin was tested against Gram-positive (Enterococcus faecalis ATCC 29212, Staphylococcus aureus subsp. aureus ATCC 29213) and Gram-negative bacteria (Escherichia coli ATCC 25922, Pseudomonas aeruginosa ATCC 27853) following the previously described modification of the microtitre broth dilution method ([Vassilevski et al., 2010]). Those bacterial strains were also subjected to the treatment by melittin in the same concentration range to serve as a positive control.
Briefly, bacteria were cultured in a low-salt LB medium. The two-fold microtitre broth dilution assay was carried out in 96-well sterile plates in a final volume of 100 μL. Mid-exponential-phase cultures were diluted to a final concentration of 10^5 colony-forming units·ml^−1. Pure peptides were dissolved in 10 μL of water and added to 90 μL of the bacterial dilution. The samples, a non-treated control and a sterility control were tested in five independent experiments (n = 5). The microtitre plates were incubated for 24 h at 37°C, and growth inhibition was determined by measuring the absorbance at 620 nm. Minimum inhibitory concentration (MIC) is expressed as the lowest concentration of peptide that caused 100% bacterial growth inhibition.

KCa2.2 = details: cited from earlier work
Source text: (§1) According to the Kalium database (https://kaliumdb.org) ([Kuzmenkov et al., 2016]; [Tabakmakher et al., 2019]), six of these substances were identified in scorpion venom (AmP05, maurotoxin, Pi-1, scyllatoxin, tamapin, and Ts9). […] Intere ...

KCa2 = details: Kalium database; ref Kuzmenkov et al., 2016; Tabakmakher et al., 2019; cited from earlier work
Source text: as §1

KCa3.1 = assay: Patch-clamp, HEK293 cells expressing hKCa3.1 (IK); type: cell-based, human; details: 1 µM TRAM-34
Procedure: (§2) HEK293 cells stably expressing hKCa1.1 (BK, GenBank accession number: NM_002247), hKCa2.1 (SK1, NM_002248), and hKCa3.1 (IK, AH009923) or COS7 cells stably expressing hKCa2.3 (SK3, AJ251016) were generated and cultured as previously described ([Sankaranarayanan et al., 2009]). HEK293 cells stably expressing rKCa2.2 (SK2, NM_019314) were a gift from Dr. Mio Zhang (Chapman University, Irvine).
(§3) All experiments were conducted with an EPC-10 amplifier (HEKA) in the whole-cell configuration with a holding potential of –80 mV. Pipette resistances averaged around 2.5 MΩ. […] Free Ca^2+ concentrations were calculated with MaxChelator (developed by Chris Patton, Stanford University) assuming a temperature of 25°C, pH 7.2, and ionic strength of 160 mM. […] Please note that the provided concentrations are what was weighed in to achieve an initially hyperosmolar solution that was diluted with water to 310 mOsm for the internal and 315 mOsm for the external solution as measured with a VAPRO Vapor pressure osmometer (Wescor). […]
(§4) KCa2 and KCa3.1 currents were elicited by 200-ms voltage ramps from –120 to 40 mV applied every 10 s, and the fold decrease of slope conductance at –80 mV was taken as a measure of apamin-induced channel inhibition. […] KCa1.1 channel activity was recorded with a step protocol, in which cells were stepped to +40 mV for 100 ms at 30-s intervals. […]

KCa2.1 = biological target: T1, KCa2.1 (Homo sapiens, UniProt Q92952); assay: Patch-clamp, HEK293 cells expressing hKCa2.1 (SK1); type: cell-based; details: voltage ramps –120 to 40 mV, slope conductance at –80 mV, 1 μM free Ca^2+ internal; Hill fit, n ≥ 5; 95% CI 3.3–5.0 nM
T1 construct: expressed in transfected cells
Procedure: as §2, §3, §4

KV11.1 = assay: Two-electrode voltage-clamp, X. laevis oocytes, hKV11.1 (hERG); type: cell-based, human; parameters: key to effect on current: N.E.: no effect at 5 μM concentration; details: 5 μM apamin, n = 5
Procedure: Linearized plasmids bearing the ion channel genes were transcribed using the mMESSAGE mMACHINE SP6 or T7 transcription kits (Ambion) to prepare the respective cRNA. The harvesting of stage V–VI oocytes from anaesthetized female X. laevis frogs was described previously ([Liman et al., 1992]; [Peigneur et al., 2021]). Oocytes were injected with 50 nL of cRNA at a concentration of 1 ng nl^−1 using a microinjector (Drummond Scientific). The oocytes were incubated at 16°C in ND96 solution containing (in mM): NaCl, 96; KCl, 2; CaCl2, 1.8; MgCl2, 2; and HEPES, 5 (pH 7.4), supplemented with 50 mg l^−1 gentamicin sulfate.
Recordings were performed at room temperature (18°C–22°C) using a Geneclamp 500 amplifier (Molecular Devices) controlled by a pClamp data acquisition system (Axon Instruments). Whole-cell currents from oocytes were recorded 1–4 days after cRNA injection. Bath solution composition was ND96, or HK containing (in mM): NaCl, 2; KCl, 96; CaCl2, 1.8; MgCl2, 2; and HEPES, 5 (pH 7.4). Voltage and current electrodes were filled with 3 M KCl. […]
Currents were evoked by a 100 ms (NaV) or 500 ms (KV) depolarization to the voltage corresponding to the maximal activation of the channels in control conditions from a holding potential of −90 mV. […] TRP currents were measured in ND96 at −90 mV during 400 s. […] Peak current amplitude was measured prior to and following the application of the peptide. […]

mice = details: cited from earlier work
Source text: The symptoms are apparently of central origin because the toxicity increases by a factor of 1,000–10,000 and the progression of poisoning is faster in case of i.c.v. injection, but the clinical picture stays the same ([Habermann, 1977], [Habermann, 1984]).

T1 sequence (Q92952 whole entry): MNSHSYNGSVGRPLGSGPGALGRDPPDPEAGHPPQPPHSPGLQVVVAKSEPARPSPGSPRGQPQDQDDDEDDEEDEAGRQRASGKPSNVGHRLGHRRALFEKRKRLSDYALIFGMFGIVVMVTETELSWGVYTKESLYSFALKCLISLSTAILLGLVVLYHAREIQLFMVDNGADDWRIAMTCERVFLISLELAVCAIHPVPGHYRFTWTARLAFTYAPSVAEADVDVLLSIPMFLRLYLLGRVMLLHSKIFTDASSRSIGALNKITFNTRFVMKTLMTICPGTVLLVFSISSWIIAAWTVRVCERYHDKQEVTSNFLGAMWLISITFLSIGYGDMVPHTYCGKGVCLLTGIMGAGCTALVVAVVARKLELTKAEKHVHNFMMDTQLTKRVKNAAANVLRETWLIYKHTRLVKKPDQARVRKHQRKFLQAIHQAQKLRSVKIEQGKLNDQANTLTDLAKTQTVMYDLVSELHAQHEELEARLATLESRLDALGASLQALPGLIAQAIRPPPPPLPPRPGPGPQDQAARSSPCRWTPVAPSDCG

`CC[C@H](C)[C@H](NC(=O)CN)C(=O)NCC(=O)N[C@@H](C)C(=O)N[C@H](C(=O)N[C@@H](CC(C)C)C(=O)N[C@@H](CCCCN)C(=O)N[C@H](C(=O)N[C@@H](CC(C)C)C(=O)N[C@H](C(=O)N[C@H](C(=O)NCC(=O)N[C@@H](CC(C)C)C(=O)N1CCC[C@H]1C(=O)N[C@@H](C)C(=O)N[C@@H](CC(C)C)C(=O)N[C@H](C(=O)N[C@@H](CO)C(=O)N[C@@H](Cc1c[nH]c2ccccc12)C(=O)N[C@H](C(=O)N[C@@H](CCCCN)C(=O)N[C@@H](CCCNC(=N)N)C(=O)N[C@@H](CCCCN)C(=O)N[C@@H](CCCNC(=N)N)C(=O)N[C@@H](CCC(N)=O)C(=O)N[C@@H](CCC(N)=O)C(N)=O)[C@@H](C)CC)[C@@H](C)CC)[C@@H](C)O)[C@@H](C)O)C(C)C)C(C)C` [Melittin] gave an MIC (E. faecalis) of 0.5 µM (≈ 1.42 µg/mL).

For “scyllatoxin: scorpion toxin from Leiurus quinquestriatus hebraeus (AFCNLRMCQLSCRSLGLLGKCIGDKCECVKH; UniProt P16341 1-31, looked up)”, the “IC50 range in words” value (KCa2.2; ref Shakkottai et al., 2001) is listed as “subnanomolar range” and the “affinity on KCa2” value (KCa2) is listed as “high (nanomolar) affinity”.

For `Clc1ccccc1C(c1ccccc1)(c1ccccc1)n1cccn1` [TRAM-34], the “block of KCa3.1 currents” value (KCa3.1) was “potently blocked”.

For “maurotoxin (VSCTGSKDCYAPCRKQTGCPNAKCINKSCKCYGC; UniProt P80719 1-34, looked up)”, the “affinity on KCa2” value (KCa2) is listed as “high (nanomolar) affinity”.

In the case of “tamapin: scorpion toxin from Mesobuthus tamulus (AFCNLRRCELSCRSLGLLGKCIGEECKCVPY; UniProt P59869 1-31, looked up)”, the “IC50 range in words” value (KCa2.2; ref Pedarzani et al., 2002) is listed as “subnanomolar range” and the “affinity on KCa2” value (KCa2) is listed as “high (nanomolar) affinity”.

For `CC(C)C[C@@H]1NC(=O)[C@H](C)NC(=O)[C@H]([C@@H](C)O)NC(=O)[C@H](CCC(=O)O)NC(=O)[C@@H]2CCCN2C(=O)[C@H](C)NC(=O)[C@H](CCCCN)NC(=O)[C@@H]2CSSC[C@@H](C(=O)N[C@@H](CCC(N)=O)C(=O)N[C@@H](CCC(N)=O)C(=O)N[C@@H](Cc3cnc[nH]3)C(N)=O)NC(=O)[C@H](CCCNC(=N)N)NC(=O)[C@H](CCCNC(=N)N)NC(=O)[C@H](C)NC(=O)[C@H](CSSC[C@H](N)C(=O)N[C@@H](CC(N)=O)C(=O)N2)NC1=O` [apamin], the IC50 (KCa2.1) was 4.1 nM, the “current ratio (Iapamin/Icontrol)” value (KV11.1; mean ± SD) was 1.07 ± 0.06 and the effect on current (KV11.1) was “N.E”. For the same compound, the “factor of toxicity increase on i.c.v. injection” value (mice; i.c.v. compared with i.v., ref Habermann, 1977, 1984) was 1,000–10,000, the LD50 (mice; i.v., ref Habermann and Reiz, 1965, 1972) was “≈ 4 mg kg^−1” and the “symptoms when injected into mice” value (mice; ref Habermann and Reiz, 1965, 1972) was “muscle spasms, jerks, and convulsions”.

From PMC9523135, “Apamin structure and pharmacology revisited” (Frontiers in Pharmacology, 2022)
